This is an account of results in patent US8071605B2, “Piperidine compounds for use in the treatment of bacterial infections” (AstraZeneca AB, priority 2008, dated 2011).

Each structure is given as a SMILES string. ≈ marks a conversion by molar mass, not a printed value.

One experiment deals with S. aureus GyrB ATPase (Staphylococcus aureus, UniProt P0A0K8). Nature of the experiment: S. aureus GyrB ATPase inhibition (ammonium molybdate/malachite green phosphate detection). Format: biochemical. Conditions: compound concentration of 1 μM (unless otherwise noted). The essentials: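 S. aureus GyrB (250 pM) with E. coli GyrA (250 pM), 250 μM ATP and sheared DNA in pH 7.5 Hepes; phosphate release by malachite green/molybdate at 650 nm. Values are percent inhibition at 1 μM compound unless noted, against 2% DMSO and EDTA controls.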
Sequence of S. aureus GyrB ATPase (P0AES4 whole entry): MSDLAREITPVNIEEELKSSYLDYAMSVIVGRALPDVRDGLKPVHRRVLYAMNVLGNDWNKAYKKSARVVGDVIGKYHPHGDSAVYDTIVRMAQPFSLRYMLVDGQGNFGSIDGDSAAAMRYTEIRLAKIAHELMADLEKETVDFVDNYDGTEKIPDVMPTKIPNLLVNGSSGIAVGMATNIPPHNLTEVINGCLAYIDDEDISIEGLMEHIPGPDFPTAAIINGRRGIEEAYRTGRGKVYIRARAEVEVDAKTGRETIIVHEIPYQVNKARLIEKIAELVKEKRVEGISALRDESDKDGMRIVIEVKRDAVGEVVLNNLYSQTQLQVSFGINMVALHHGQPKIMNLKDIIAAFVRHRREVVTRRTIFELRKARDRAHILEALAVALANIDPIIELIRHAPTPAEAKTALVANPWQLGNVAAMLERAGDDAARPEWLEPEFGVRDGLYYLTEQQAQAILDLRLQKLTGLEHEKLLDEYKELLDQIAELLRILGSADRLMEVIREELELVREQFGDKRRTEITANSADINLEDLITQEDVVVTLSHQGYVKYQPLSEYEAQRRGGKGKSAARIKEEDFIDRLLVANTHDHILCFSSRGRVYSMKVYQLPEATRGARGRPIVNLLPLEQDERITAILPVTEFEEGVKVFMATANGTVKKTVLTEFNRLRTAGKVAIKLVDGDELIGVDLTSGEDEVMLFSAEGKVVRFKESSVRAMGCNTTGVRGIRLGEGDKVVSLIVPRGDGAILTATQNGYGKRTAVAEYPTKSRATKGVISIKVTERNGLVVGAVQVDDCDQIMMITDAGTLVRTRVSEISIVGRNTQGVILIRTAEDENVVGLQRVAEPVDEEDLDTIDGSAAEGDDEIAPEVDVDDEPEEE
Sequence of S. aureus GyrB ATPase (P0A0K8 whole entry): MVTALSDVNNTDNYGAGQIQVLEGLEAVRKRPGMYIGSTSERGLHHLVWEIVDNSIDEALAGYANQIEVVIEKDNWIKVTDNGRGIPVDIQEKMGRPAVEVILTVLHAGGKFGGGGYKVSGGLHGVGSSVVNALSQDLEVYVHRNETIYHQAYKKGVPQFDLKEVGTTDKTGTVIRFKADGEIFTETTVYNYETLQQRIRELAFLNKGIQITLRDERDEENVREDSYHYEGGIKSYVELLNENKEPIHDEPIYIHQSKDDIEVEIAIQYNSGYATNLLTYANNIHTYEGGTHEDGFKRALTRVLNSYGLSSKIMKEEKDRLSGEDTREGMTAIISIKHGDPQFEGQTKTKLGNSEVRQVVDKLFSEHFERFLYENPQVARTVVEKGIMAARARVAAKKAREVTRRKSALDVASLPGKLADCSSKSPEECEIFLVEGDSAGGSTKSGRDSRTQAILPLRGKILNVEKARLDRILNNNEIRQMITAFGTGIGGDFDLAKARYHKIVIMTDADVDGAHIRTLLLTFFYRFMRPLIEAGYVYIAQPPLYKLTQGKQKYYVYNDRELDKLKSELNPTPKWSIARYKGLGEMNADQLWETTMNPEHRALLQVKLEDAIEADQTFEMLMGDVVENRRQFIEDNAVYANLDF
One may read the inhibition as the drop in the measured response relative to a control, in per cent. For the compound `C=CCO[C@H]1CN(c2nc(-c3ncnn3C)c(C(=O)O)s2)CC[C@H]1NC(=O)c1[nH]c(C)c(Cl)c1Cl` [Example 1, 2-[(3S,4R)-4-{[(3,4-dichloro-5-methyl-1H-pyrrol-2-yl)carbonyl]amino}-3-(prop-2-en-1-yloxy)piperidin-1-yl]-4-(1-methyl-1H-1,2,4-triazol-5-yl)-1,3-thiazole-5-carboxylic acid], the inhibition at 1 µM was determined as 99%. On the same count and under the same terms, as for `CCO[C@H]1CN(c2nc(-c3cnc(NCCN4CCOCC4)cn3)c(C(=O)O)s2)CC[C@H]1NC(=O)c1[nH]c(C)c(Cl)c1Cl` [Example 91], the figure is 105%; as for `Cc1[nH]c(C(=O)N[C@@H]2CCN(c3nc(-c4cnccn4)c(C(=O)O)s3)C[C@@H]2C)c(Cl)c1Cl` [Example 25], 119%. Regarding `Cc1[nH]c(C(=O)N[C@@H]2CCN(c3nc(-c4cnccn4)c(C(=O)O)s3)C[C@@H]2C)cc1Cl` [Example 21], the inhibition at 1 µM turned out to be 118%. Turning to `CO[C@H]1CN(c2nc(-c3cnc(NCC4CN5CCN4CC5)cn3)c(C(=O)O)s2)CC[C@H]1NC(=O)c1[nH]c(C)c(Cl)c1Cl` (stereo partly drawn) [Example 195, 4-{5-[(1,4-diazabicyclo[2.2.2]oct-2-ylmethyl)amino]pyrazin-2-yl}-2-[(3S,4R)-4-{[(3,4-dichloro-5-methyl-1H-pyrrol-2-yl)carbonyl]amino}-3-methoxypiperidin-1-yl]-1,3-thiazole-5-carboxylic acid], the inhibition at 1 µM stood at 118%.

Turning to `CCC(CC)N1CCN(c2cnc(-c3nc(N4CC[C@@H](NC(=O)c5[nH]c(C)c(Cl)c5Cl)[C@@H](C)C4)sc3C(=O)O)cn2)CC1` [Example 179, 2-[(3S,4R)-4-{[(3,4-dichloro-5-methyl-1H-pyrrol-2-yl)carbonyl]amino}-3-methylpiperidin-1-yl]-4-{5-[4-(pentan-3-yl)piperazin-1-yl]pyrazin-2-yl}-1,3-thiazole-5-carboxylic acid], the inhibition at 1 µM worked out at 104%. With `CCO[C@H]1CN(c2nc(-c3cnc(N4CCN(CCO)CC4)cn3)c(C(=O)O)s2)CC[C@H]1NC(=O)c1[nH]c(C)c(Cl)c1Cl` [Example 103], the inhibition at 1 µM was found to be 102%. Same read-out and setting: as for `Cc1[nH]c(C(=O)N[C@@H]2CCN(c3nc(-c4ncnn4C)c(C(=O)O)s3)C[C@@H]2C)cc1Cl` [Example 19], the figure is 112%.

`CCO[C@H]1CN(c2nc(-c3cnccn3)c(C(=O)O)s2)CC[C@H]1NC(=O)c1cc(Cl)c(C)[nH]1` [Example 18]: the inhibition at 1 µM came out at 108%. Same read-out and setting: as for `CO[C@H]1CN(c2nc(-c3cnc(N4CCNCC4)cn3)c(C(=O)O)s2)CC[C@H]1NC(=O)c1[nH]c(C)c(Cl)c1Cl` [Example 126], the figure is 108%. Regarding `CCO[C@H]1CN(c2nc(-c3cnc(NC(COC)COC)cn3)c(C(=O)O)s2)CC[C@H]1NC(=O)c1[nH]c(C)c(Cl)c1Cl` [Example 92], the inhibition at 1 µM stood at 102%. Regarding `Cc1[nH]c(C(=O)N[C@@H]2CCN(c3nc(-c4cnc(N5CCN(CCO)CC5)cn4)c(C(=O)O)s3)C[C@@H]2C)c(Cl)c1Cl` [Example 182, 2-[(3S,4R)-4-{[(3,4-dichloro-5-methyl-1H-pyrrol-2-yl)carbonyl]amino}-3-methylpiperidin-1-yl]-4-{5-[4-(2-hydroxyethyl)piperazin-1-yl]pyrazin-2-yl}-1,3-thiazole-5-carboxylic acid], the inhibition at 1 µM came out at 117%. For `Cc1[nH]c(C(=O)N[C@@H]2CCN(c3nc(-c4cnc(NCCN5CCOCC5)cn4)c(C(=O)O)s3)C[C@@H]2C)c(Cl)c1Cl` [Example 171, 2-[(3S,4R)-4-{[(3,4-dichloro-5-methyl-1H-pyrrol-2-yl)carbonyl]amino}-3-methylpiperidin-1-yl]-4-(5-{[2-(morpholin-4-yl)ethyl]amino}pyrazin-2-yl)-1,3-thiazole-5-carboxylic acid], the inhibition at 1 µM was found to be 101%. The same measure, in the same setting: as for `CO[C@H]1CN(c2nc(-c3cnc(N4CCN(CC5CCCCC5)CC4)cn3)c(C(=O)O)s2)CC[C@H]1NC(=O)c1[nH]c(C)c(Cl)c1Cl` [Example 136], the figure is 104%; as for `CO[C@H]1CN(c2nc(-c3cnc(OCCC4CCN(C)CC4)cn3)c(C(=O)O)s2)CC[C@H]1NC(=O)c1[nH]c(C)c(Cl)c1Cl` [Example 65], 107%.

Consider `Cc1[nH]c(C(=O)N[C@@H]2CCN(c3nc(-c4ncnn4C)c(C(=O)O)s3)C[C@@H]2C)c(C#N)c1Cl` [Example 26], for which the inhibition at 1 µM is 97%. Turning to `CCO[C@H]1CN(c2nc(-c3cnc(NCCN4CCNC4=O)cn3)c(C(=O)O)s2)CC[C@H]1NC(=O)c1[nH]c(C)c(Cl)c1Cl` [Example 93], the inhibition at 1 µM was 94%. The same measure, in the same setting: as for `CCN1CCN(c2cnc(-c3nc(N4CC[C@@H](NC(=O)c5[nH]c(C)c(Cl)c5Cl)[C@@H](C)C4)sc3C(=O)O)cn2)CC1` [Example 164, 2-[(3S,4R)-4-{[(3,4-dichloro-5-methyl-1H-pyrrol-2-yl)carbonyl]amino}-3-methylpiperidin-1-yl]-4-[5-(4-ethylpiperazin-1-yl)pyrazin-2-yl]-1,3-thiazole-5-carboxylic acid], the figure is 117%; as for `CCC(CC)N1CCN(c2cnc(-c3nc(N4CC[C@@H](NC(=O)c5[nH]c(C)c(Cl)c5Cl)[C@@H](OC)C4)sc3C(=O)O)cn2)CC1` [Example 137], 101%. Still for that read-out and setting: as for `Cc1[nH]c(C(=O)N[C@@H]2CCN(c3nc(-c4cnc(N5CCN(CC6CCCO6)CC5)cn4)c(C(=O)O)s3)C[C@@H]2C)c(Cl)c1Cl` (stereo partly drawn) [Example 183, 2-[(3S,4R)-4-{[(3,4-dichloro-5-methyl-1H-pyrrol-2-yl)carbonyl]amino}-3-methylpiperidin-1-yl]-4-{5-[4-(tetrahydrofuran-2-ylmethyl)piperazin-1-yl]pyrazin-2-yl}-1,3-thiazole-5-carboxylic acid], the figure is 116%; as for `CCO[C@H]1CN(c2nc(-c3ncnn3CCOC)c(C(=O)O)s2)CC[C@H]1NC(=O)c1[nH]c(C)c(Cl)c1C#N` [Example 13], 99%. For `COCCn1ccnc1-c1nc(N2CC[C@@H](NC(=O)c3[nH]c(C)c(Cl)c3Cl)[C@@H](C)C2)sc1C(=O)O` [Example 23], the inhibition at 1 µM came to 100%. The same measure, in the same setting: as for `CCO[C@H]1CN(c2nc(-c3ncccc3F)c(C(=O)O)s2)CC[C@H]1NC(=O)c1[nH]c(C)c(Cl)c1C#N` [Example 14], the figure is 91%. On the same count and under the same terms, as for `CCO[C@H]1CN(c2nc(-c3cnc(N4CCN(CCN(CC)CC)CC4)cn3)c(C(=O)O)s2)CC[C@H]1NC(=O)c1[nH]c(C)c(Cl)c1Cl` [Example 101], the figure is 117%; as for `Cc1[nH]c(C(=O)N[C@@H]2CCN(c3nc(-c4ncccc4F)c(C(=O)O)s3)C[C@@H]2C)c(C#N)c1Cl` [Example 28], 98%; as for `Cc1[nH]c(C(=O)N[C@@H]2CCN(c3nc(-c4cnc(N5CCN[C@H](C)C5)cn4)c(C(=O)O)s3)C[C@@H]2C)c(Cl)c1Cl` [Example 181, 2-[(3S,4R)-4-{[(3,4-dichloro-5-methyl-1H-pyrrol-2-yl)carbonyl]amino}-3-methylpiperidin-1-yl]-4-{5-[(3R)-3-methylpiperazin-1-yl]pyrazin-2-yl}-1,3-thiazole-5-carboxylic acid], 101%. For the compound `CCO[C@H]1CN(c2nc(-c3ncccc3F)c(C(=O)O)s2)CC[C@H]1NC(=O)c1cc(Cl)c(C)[nH]1` [Example 17], the inhibition at 1 µM came out at 106%.

In a further experiment the test system is Streptococcus pneumoniae. Nature of the experiment: Bacterial susceptibility testing in liquid media (MIC). Format: cell-based. The note with it: against Streptococcus pneumoniae; lowest concentration reducing growth by 80% or more. An excerpt: Compounds may be tested for antimicrobial activity by susceptibility testing in liquid media. Compounds may be dissolved in dimethylsulfoxide and tested in 10 doubling dilutions in the susceptibility assays. The organisms used in the assay may be grown overnight on suitable agar media and then suspended in a liquid medium appropriate for the growth of the organism. The suspension can be a 0.5 McFarland and a further 1 in 10 dilution can be made into the same liquid medium to prepare the final organism suspension in 100 μL. Plates can be incubated under appropriate conditions at 37° C. for 24 hrs prior to reading. The Minimum Inhibitory Concentration (MIC) may be determined as the lowest drug concentration able to reduce growth by 80% or more.
As a reminder, the MIC is the least concentration at which growth counts as inhibited. In turn, `COCCn1ccnc1-c1nc(N2CC[C@@H](NC(=O)c3[nH]c(C)c(Cl)c3Cl)[C@@H](C)C2)sc1C(=O)O` [Example 23] displayed an MIC of 0.78 µg/mL (≈ 1.44 µM).
